Assay results from PubChem BioAssay AID2060490 (Molecular Pharmacology Branch, DTP, NCI, 2025).
pIC50: −log10 of the molar value. “And” between values parts separate entries of the source, which are not always exact repeats. Identical values can stand only once. Values belong to the compound of their own block, whether it stands above or below them.

Tested on: 885512-296-R-J2-PDC complex spheroid viability
Experiment: Anticancer human tumor 885512-296-R-J2-PDC patient-derived breast carcinoma cell line growth inhibition [GQUAD]
Conditions: for viability, T/C: stronger effect = lower value
From the text: DNA G-quadruplex Stabilizer Agents in Combinations in Complex Spheroids
A high-throughput screen of multi-cell type tumor spheroids was designed to identify active combinations of DNA G-quadruplex stabilizer agents and targeted small molecules. Complex spheroids include a stromal component modeled by human endothelial cells (HUVEC) and fibroblasts modeled by human mesenchymal stem cells (MSCs). The concentration ranges selected for each drug and investigational agent were based upon clinically achievable concentrations if the clinical Cmax of the agent was known.
Compounds. The drugs and investigational agents: pidnarulex (CX-5461; NSC782164), APTO-253 (NSC789042), BRACO-19 (NSC847499), peposertib (NSC802822), ceralasertib (NSC780249), elimusertib (NSC800525), camonsertib (NSC841442), AZD-1390 (NSC803789), olaparib (NSC753686), talazoparib (NSC767125), ART-558 (NSC835418), sotorasib (NSC818433), MRTX-1133 (NSC836407), SN-38 (NSC673596), topotecan (NSC609699), etoposide (NSC141540), doxorubicin (NSC123127), gemcitabine (NSC613327), 5-fluorouracil (NSC19893), paclitaxel (NSC125973), vemurafenib (NSC761431), panobinostat (NSC761190), R-306465 (JNJ-16241199; NSC773264), adavosertib (NSC754352), TP-3654 (NSC805149), carboplatin (NSC241240), KSQ-4279 (NSC840948), and staurosporine (NSC755774) were obtained from the National Cancer Institute (NCI) Developmental Therapeutics Program Chemical Repository (34). The FDA-approved anticancer drug set is available from the NCI Developmental Therapeutics Program. […] The stock solutions were prepared in dimethyl sulfoxide (DMSO, Sigma-Aldrich, St. Louis, MO, cat. D2650) at 800-fold the tested concentration and stored at -70 degrees C prior to their use. All drugs and investigational agents were tested over a range starting from a high concentration at or near the clinical Cmax and decreasing in half-log increments. If the clinical Cmax for an agent had not been determined, the highest concentration tested was 10 microM.
2.3 Cell Culture. All cells were maintained in an incubator at 37 degrees C and 5% CO2 with 95% humidity. The PDC lines were cultured according to standard operating procedures established by the NCI PDMR. All PDCs were thawed and cultured in Matrigel-coated flasks prepared with a working solution of 1X Ham's F-12 nutrient mix, without supplementation (Invitrogen, cat. 11765054), 100 U/mL penicillin-streptomycin (Invitrogen, cat. 15140122), and 2.5% Matrigel (Corning Inc., cat. 354248) for the first three passages. The 857933-349-R-J2-PDC line was cultured in 6C/Colon 1B media, which includes advanced DMEM/F-12 (Thermo Fisher Scientific, cat. 12634028), 10 mM HEPES (Thermo Fisher Scientific, cat. 15630080), 1X GlutaMAX supplement (Thermo Fisher Scientific, cat. 35050061), 0.1 mg/mL primocin (InvivoGen, cat. ant-pm-2), 10% defined fetal bovine serum, heat inactivated (HyClone Laboratories Inc., cat. SH30070.03HI), 50% L-WRN conditioned media (ATCC, cat. CRL-3276), 1.25 mM N-Acetyl-L-cysteine (Sigma-Aldrich, cat. A9165), 10 mM nicotinamide (Sigma-Aldrich, cat. N0636), 1X B-27 supplement (Thermo Fisher Scientific, cat. 17504044), 1X N-2 supplement (Thermo Fisher Scientific, cat. 17502048), 10 microM Y-27632 dihydrochloride (Tocris Bioscience, cat. 1254), and 50 ng/mL human EGF recombinant protein (Thermo Fisher Scientific, cat. PHG0311). The 485176-168-R4-J1-PDC line was cultured in Panc media, which includes all 6C/Colon 1B media components plus 100 ng/mL human FGF-10 (Thermo Fisher Scientific, cat. 100-26), 500 nM SB-431542 (Selleckchem, cat. S1067), and gastrin (Tocris, cat. 3006).
[…]

[1] = curve of first compound, second compound 0.0316 µM
[2] = curve of first compound, second compound 0.1 µM
[3] = curve of first compound, second compound 0.316 µM
[4] = curve of first compound, second compound 1 µM
[5] = curve of first compound, second compound 3.16 µM
[6] = curve of first compound, second compound 10 µM
[7] = second compound 0.0316 µM, first compound 0.0316 µM
[8] = second compound 0.0316 µM, first compound 0.1 µM
[9] = second compound 0.0316 µM, first compound 0.316 µM
[10] = second compound 0.0316 µM, first compound 1 µM
[11] = second compound 0.0316 µM, first compound 3.16 µM
[12] = second compound 0.0316 µM, first compound 10 µM
[13] = second compound 0.1 µM, first compound 0.0316 µM
[14] = second compound 0.1 µM, first compound 0.1 µM
[15] = second compound 0.1 µM, first compound 0.316 µM
[16] = second compound 0.1 µM, first compound 1 µM
[17] = second compound 0.1 µM, first compound 3.16 µM
[18] = second compound 0.1 µM, first compound 10 µM
[19] = second compound 0.316 µM, first compound 0.0316 µM
[20] = second compound 0.316 µM, first compound 0.1 µM
[21] = second compound 0.316 µM, first compound 0.316 µM
[22] = second compound 0.316 µM, first compound 1 µM
[23] = second compound 0.316 µM, first compound 3.16 µM
[24] = second compound 0.316 µM, first compound 10 µM
[25] = second compound 1 µM, first compound 0.0316 µM
[26] = second compound 1 µM, first compound 0.1 µM
[27] = second compound 1 µM, first compound 0.316 µM
[28] = second compound 1 µM, first compound 1 µM
[29] = second compound 1 µM, first compound 3.16 µM
[30] = second compound 1 µM, first compound 10 µM
[31] = second compound 3.16 µM, first compound 0.0316 µM
[32] = second compound 3.16 µM, first compound 0.1 µM
[33] = second compound 3.16 µM, first compound 0.316 µM
[34] = second compound 3.16 µM, first compound 1 µM
[35] = second compound 3.16 µM, first compound 3.16 µM
[36] = second compound 3.16 µM, first compound 10 µM
[37] = second compound 10 µM, first compound 0.0316 µM
[38] = second compound 10 µM, first compound 0.1 µM
[39] = second compound 10 µM, first compound 0.316 µM
[40] = second compound 10 µM, first compound 1 µM
[41] = second compound 10 µM, first compound 3.16 µM
[42] = second compound 10 µM, first compound 10 µM
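Also: spheroids exposed to the compounds for one week.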
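For viability, T/C in this document: percent of tumor spheroid viability relative to DMSO vehicle control wells.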

- pIC50 [1]: 7.19
- pIC50 [2]: > 7.50
- pIC50 [3]: > 7.50
- pIC50 [4]: > 7.50
- pIC50 [5]: > 7.50
- pIC50 [6]: > 7.50
Compound: O=C(NO)c1cnc(N2CCN(S(=O)(=O)c3ccc4ccccc4c3)CC2)nc1 + Cc1cnc(CNC(=O)c2c(=O)c3ccc(N4CCCN(C)CC4)nc3n3c2sc2ccccc23)cn1
- viability, T/C [7]: 65.9%
- viability, T/C [8]: 38.7%
- viability, T/C [9]: 23.6%
- viability, T/C [10]: 5.79%
- viability, T/C [11]: 0.51%
- viability, T/C [12]: 0.13%
- viability, T/C [13]: 42.8%
- viability, T/C [14]: 37.7%
- viability, T/C [15]: 27.8%
- viability, T/C [16]: 6.31%
- viability, T/C [17]: 0.49%
- viability, T/C [18]: 0.43%
- viability, T/C [19]: 22.8%
- viability, T/C [20]: 19.5%
- viability, T/C [21]: 21.7%
- viability, T/C [22]: 7.7%
- viability, T/C [23]: 0.43%
- viability, T/C [24]: 0.1%
- viability, T/C [25]: 19.3%
- viability, T/C [26]: 14.9%
- viability, T/C [27]: 13.7%
- viability, T/C [28]: 0.1%
- viability, T/C [29]: 0.07%
- viability, T/C [30]: 0.11%
- viability, T/C [31]: 10%
- viability, T/C [32]: 6.5%
- viability, T/C [33]: 0.13%
- viability, T/C [34]: 0.1%
- viability, T/C [35]: 0.09%
- viability, T/C [36]: 0.12%
- viability, T/C [37]: 0.07%
- viability, T/C [38]: 0.15%
- viability, T/C [39]: 0.15%
- viability, T/C [40]: 0.12%
- viability, T/C [41]: 0.15%
- viability, T/C [42]: 0.17%

- pIC50 (curve of compound): > 7.50
Compound: CC1COCCN1c1cc(-c2ccnn2C)c2ccnc(-c3ccn[nH]3)c2n1 (stereo not given)
- viability, T/C (compound 0.0316 µM): 48% and 48.8% and 42.3%
- viability, T/C (compound 0.1 µM): 6.72% and 6.01% and 7.2%
- viability, T/C (compound 0.316 µM): 2.82% and 3.14% and 2.97%
- viability, T/C (compound 1 µM): 3.36% and 4.09% and 3.06%
- viability, T/C (compound 3.16 µM): 4.39% and 4.91% and 5.11%
- viability, T/C (compound 10 µM): 7.29% and 7.28% and 8.11%

- pIC50 [1]: < 5.00
- pIC50 [2]: < 5.00
- pIC50 [3]: > 7.50
- pIC50 [4]: > 7.50
- pIC50 [5]: > 7.50
- pIC50 [6]: > 7.50
Compound: CCCS(=O)(=O)Nc1ccc(F)c(C(=O)c2c[nH]c3ncc(-c4ccc(Cl)cc4)cc23)c1F + Cc1cnc(CNC(=O)c2c(=O)c3ccc(N4CCCN(C)CC4)nc3n3c2sc2ccccc23)cn1
- viability, T/C [7]: 97.5%
- viability, T/C [8]: 93.9%
- viability, T/C [9]: 97.1%
- viability, T/C [10]: 91.7%
- viability, T/C [11]: 102%
- viability, T/C [12]: 58.8%
- viability, T/C [13]: 65.8%
- viability, T/C [14]: 61%
- viability, T/C [15]: 64.3%
- viability, T/C [16]: 67.6%
- viability, T/C [17]: 71.2%
- viability, T/C [18]: 41.5%
- viability, T/C [19]: 30.3%
- viability, T/C [20]: 24.9%
- viability, T/C [21]: 22.9%
- viability, T/C [22]: 34.2%
- viability, T/C [23]: 45.6%
- viability, T/C [24]: 25.4%
- viability, T/C [25]: 19.2%
- viability, T/C [26]: 26%
- viability, T/C [27]: 26.4%
- viability, T/C [28]: 33.6%
- viability, T/C [29]: 36%
- viability, T/C [30]: 22.7%
- viability, T/C [31]: 20.9%
- viability, T/C [32]: 29.3%
- viability, T/C [33]: 26.5%
- viability, T/C [34]: 25.8%
- viability, T/C [35]: 24.5%
- viability, T/C [36]: 0.29%
- viability, T/C [37]: 0.15%
- viability, T/C [38]: 0.16%
- viability, T/C [39]: 0.18%
- viability, T/C [40]: 0.17%
- viability, T/C [41]: 0.15%
- viability, T/C [42]: 0.18%

Compound: Nc1ccn(C2OC(CO)C(O)C2(F)F)c(=O)n1 (stereo not given) + CN(C)c1ccc(Nc2c3ccc(NC(=O)CCN4CCCC4)cc3nc3cc(NC(=O)CCN4CCCC4)ccc23)cc1
- pIC50 [1]: > 7.50
- pIC50 [2]: > 7.50
- pIC50 [3]: > 7.50
- pIC50 [4]: > 7.50
- pIC50 [5]: > 7.50
- pIC50 [6]: > 7.50
- viability, T/C [7]: 9.1%
- viability, T/C [8]: 2.14%
- viability, T/C [9]: 2.5%
- viability, T/C [10]: 3.16%
- viability, T/C [11]: 3.03%
- viability, T/C [12]: 2.58%
- viability, T/C [13]: 7.88%
- viability, T/C [14]: 2.78%
- viability, T/C [15]: 2.67%
- viability, T/C [16]: 2.57%
- viability, T/C [17]: 2.19%
- viability, T/C [18]: 2.48%
- viability, T/C [19]: 6.92%
- viability, T/C [20]: 2.8%
- viability, T/C [21]: 3.02%
- viability, T/C [22]: 2.49%
- viability, T/C [23]: 2.88%
- viability, T/C [24]: 2.91%
- viability, T/C [25]: 7.45%
- viability, T/C [26]: 2.12%
- viability, T/C [27]: 2.71%
- viability, T/C [28]: 2.43%
- viability, T/C [29]: 2.45%
- viability, T/C [30]: 2.25%
- viability, T/C [31]: 8.52%
- viability, T/C [32]: 3.21%
- viability, T/C [33]: 2.06%
- viability, T/C [34]: 2.2%
- viability, T/C [35]: 2.24%
- viability, T/C [36]: 1.81%
- viability, T/C [37]: 7.17%
- viability, T/C [38]: 2.02%
- viability, T/C [39]: 2.12%
- viability, T/C [40]: 1.7%
- viability, T/C [41]: 1.53%
- viability, T/C [42]: 1.39%

- pIC50 (curve of compound): > 9.00
Compound: CCc1c2c(nc3ccc(O)cc13)-c1cc3c(c(=O)n1C2)COC(=O)[C@]3(O)CC
- viability, T/C (compound 0.000999 µM): 25.5% and 14.5% and 17.8%
- viability, T/C (compound 0.00316 µM): 8.48% and 8.19% and 8.06%
- viability, T/C (compound 0.00999 µM): 5.42% and 2.67% and 4.25%
- viability, T/C (compound 0.0316 µM): 3.41% and 2.61% and 2.84%
- viability, T/C (compound 0.0999 µM): 2% and 2.11% and 1.97%
- viability, T/C (compound 0.316 µM): 1.84% and 1.42% and 1.47%
